US9403756B2, “N-phenyl anthranilic acid derivatives and uses thereof” (Ramot at Tel-Aviv University Ltd., priority 2007, dated 2016)
Several values for one entry are separate records, joined by “and”; a condition that tells them apart may be missing. Equal entries are not always repeated. Where two headings read alike, the source gives them in different places.

What was measured:
Kv7.2/3 channels = target: T1, Kv7.2/3 channels (Homo sapiens, UniProt O43525+O43526); assay: Kv7.2/3 channels coexpressed in CHO cells, whole-cell patch-clamp; type: cell-based; conditions: for Activity: M-channel modulation, Kv7.2 and Kv7.3 subunits coexpressed in CHO cells; for ΔV50 (mV): left-shift of the activation curve of Kv7.2/3 channels; for V50: control V50=−32.1±8.9 mV; for fold increase in current amplitude: stepped from −90 to −50 mV, n=10
T1 construct: expressed in transfected cells; host or cells: CHO cells
Description: Chinese hamster ovary (CHO) cells were grown in Dulbecco's modified Eagle's medium (DMEM) supplemented with 2 mM glutamine, 10% fetal calf serum and antibiotics. Briefly, 40,000 cells seeded on poly-D-lysine-coated glass coverslips (13 mm diameter) in a 24-multiwell plate were transfected with pIRES-CD8 (0.5 μg) as a marker for transfection, and with Kv7.2 (0.5 μg) and Kv7.3 (0.5 μg) or TRPV1 […] or TRPV6 […].
For electrophysiology, transfected cells were visualized approximately 40 hours following transfection, using anti-CD8 antibody-coated beads. Transfection was performed using Fugene 6 (Roche, Indianapolis Ind., USA) according to the manufacturer's protocol.
Voltage-clamp recordings in CHO cells were performed, using the whole-cell configuration of the patch-clamp technique. Signals were amplified using an Axopatch 200B patch-clamp amplifier (Molecular Devices, Sunnyvale, Calif.), sampled at 2 kHz and filtered at 800 Hz via a 4-pole Bessel low pass filter. […] The patch pipettes were pulled from borosilicate glass (Warner Instrument Corp, USA) with a resistance of 2-5 MΩ. For K^+ current recordings in CHO cells, the intracellular pipette solution contained (in mM): 130 KCl, 1 MgCl2, 5 K2ATP, 5 EGTA, 10 HEPES, adjusted with KOH to pH 7.4 (290 mOsm). The extracellular solution contained (in mM): 140 NaCl, 4 KCl, 1.8 CaCl2, 1.2 MgCl2, 11 glucose, 5.5 HEPES, adjusted with NaOH to pH 7.4 (310 mOsm).
(§1) Data analysis was performed using the Clampfit program (pClamp 9.2, Molecular Devices), Microsoft Excel (Microsoft) and Prism 4.0 (GraphPad). Chord conductance (G) was calculated by using the following equation: G=I/(V−Vrev) where I corresponds to the current amplitude measured at the end of the pulse and Vrev, the calculated reversal potential. G was estimated at various test voltages V and then, normalized to a maximal conductance value, Gmax. Activation curves were fitted by one Boltzmann distribution: G/Gmax=1/{1+exp[(V50−V)/s]} where V50 is the voltage at which the current is half-activated and s is the slope factor. All data were expressed as mean±SEM. Statistically significant differences were assessed by Student's t-test. Analysis of sEPSCs and sIPSCs was done using the Clampfit program (pClamp 9.2, Molecular Devices) and included evaluation of the individual events as well as the average event amplitude and the integral of the event (total charge transfer).
In these studies, the impact of the compounds on M-channel activity was measured by the heterologous coexpression of Kv7.2 and Kv7.3 subunits in CHO cells.

[1] = test system: primary hippocampal neurons; assay: Spontaneous and miniature EPSCs/IPSCs in primary hippocampal neurons, voltage-clamp; type: cell-based, rat; conditions: for effect on amplitude of miniature EPSCs and IPSCs: NH29 at 25 μM, data not shown
Description: For hippocampal neuronal cultures, Sprague-Dawley rat embryos (E18) were removed by caesarian section and their hippocampi were dissected out. The tissue was digested with papain for 20 min, triturated to a single-cell suspension, and plated at a density of 40,000 cells per ml on a substrate of bovine collagen type IV and 100 μg/ml poly-L-lysine in 13 mm diameter glass coverslips of a 24-multiwell plate. The culture medium consisted of Modified Eagle's Medium containing 5% horse serum (Biological Industries, Beit HaEmek, Israel), B-27 neuronal supplement (Invitrogen, Carlsbad, Calif.), 100 U/ml penicillin, 100 μg/ml streptomycin, and 2 mM glutamine. D-glucose was supplemented to a final concentration of 6 g/l. Cytosine-1-D-arabinofuranoside (5 μM) was added after 5 days to arrest glial cell proliferation.
For electrophysiological recordings hippocampal neurons were used at 10-14 days in culture. All cultures were maintained at 37° C. in humidified air containing 5% CO2.
Spontaneous excitatory postsynaptic currents (EPSCs) were recorded in the voltage-clamp configuration of the whole-cell patch-clamp technique at a holding potential of −70 mV as previously described; the extracellular solution contained (in mM) 160 NaCl, 2.5 KCl, 10 HEPES, 10 glucose, 2 CaCl2; pH 7.3 (325 mOsm), to which 30 μM picrotoxin and 10 μM bicuculline methyl iodide were added. The intracellular solution consisted (in mM) of 130 K-gluconate, 10 KCl, 1.1 EGTA, 10 HEPES, 1 MgCl2, 2 Na2ATP, 0.1 CaCl2 and 5 QX314Br to block Na^+ currents; pH 7.2 (315 mOsm).
Spontaneous inhibitory postsynaptic currents (IPSCs) were recorded at a holding potential of −70 mV; the extracellular solution contained (in mM) 160 NaCl, 2.5 KCl, 10 HEPES, 10 glucose, 2 CaCl2; pH 7.3 (325 mOsm), to which 10 μM NBQX and 10 μM AP-5 were added. The intracellular solution consisted (in mM) of 144 CsCl, 10 HEPES, 1.1 EGTA, 0.1 CaCl2, 5 MgCl2, 2 Na2ATP, 5 QX314 Br; pH 7.3 (315 mOsm).
as §1
Because of their slow activation and their lack of inactivation, M-channels could modulate neuronal activity during repetitive spike discharge and tune neurotransmitter release. FIG. 6 illustrates the effect of NH25 on synaptic transmission and transmitter release. Spontaneous excitatory and inhibitory post-synaptic currents (sEPSCs and sIPSCs) were recorded from dense cultures of primary hippocampal neurons, using the voltage-clamp configuration of the whole-cell patch-clamp technique.

## O=C(Cc1cc([N+](=O)[O-])cc([N+](=O)[O-])c1Nc1c(Cl)cc([N+](=O)[O-])cc1Cl)NCCO [NH29]
Kv7.2/3 channels
  EC50: 14 ± 2 µM
  Activity: Opener
  ΔV50 (mV): −31.3 mV
Kv7.2/3 channels; 10 μM
  left-shift of Kv7.2/3 activation curve compared to control: −13 mV
Kv7.2/3 channels; 25 μM, at −50 mV, n=5
  fold increase of Kv7.2/3 current amplitude: 9.4±1.2 fold
Kv7.2/3 channels; 100 μM
  left-shift of Kv7.2/3 activation curve compared to control: −31 mV
Kv7.2/3 channels; opener potency, concentration-dependent left-shift in half-activation potential ΔV50, sigmoidal fit
  EC50: 14 µM
[1]
  effect on amplitude of miniature EPSCs and IPSCs: did not affect

## O=C(Cc1cc([N+](=O)[O-])ccc1Nc1c(Cl)cccc1Cl)OCCO [NH25]
Kv7.2/3 channels; 10 μM
  left-shift of Kv7.2/3 activation curve compared to control: −11 mV
  fold increase in current amplitude: 3.2 fold
Kv7.2/3 channels; 10 μM NH25, n=5
  V50: −43.6±9.0 mV
Kv7.2/3 channels; 50 μM
  left-shift of Kv7.2/3 activation curve compared to control: −21 mV
  fold increase in current amplitude: 9.1 fold
Kv7.2/3 channels; 50 μM NH25, n=5
  V50: −53.5±9.3 mV
Kv7.2/3 channels; 200 μM
  left-shift of Kv7.2/3 activation curve compared to control: −31 mV
Kv7.2/3 channels; 200 μM NH25, n=5
  V50: −63.1±2.0 mV
Kv7.2/3 channels
  Activity: Opener
  ΔV50 (mV): −31.0 mV and −31 mV
Kv7.2/3 channels; NH25, tail currents at −60 mV, control 129±22 ms, n=5
  deactivation kinetics τdeact: 284 ± 43 ms
Kv7.2/3 channels; opener potency, concentration-dependent left-shift in half-activation potential ΔV50, sigmoidal fit, read-out: EC50
  EC50: 22 µM
[1]; 25 μM
  effect on amplitude and kinetics of sIPSCs: did not significantly affect
  reduction of charge transfer within the bursts of sEPSCs: about 50%
  reduction of total charge transfer of sEPSCs: about 50%
[1]; 25 μM, holding potential −70 mV
  effect on burst duration of sEPSCs: markedly reduced
[1]
  effect on amplitude of miniature EPSCs and IPSCs: did not affect
[1]; Rattus norvegicus, Hippocampal neuron, 25 μM, holding potential −70 mV, read-out: inhibition of sIPSCs frequency of spontaneous occurrence
  inhibition at 25 µM: > 98%
